Test results from US20120165339A1, “CYCLOPROPANE DERIVATIVES” (EISAI R&D MANAGEMENT CO., LTD., priority 2010, published 2012).
Where two headings read alike, the source gives them in different places.

Columns and labels:
OX1 [1] = molecular target: T1, OX1 (Homo sapiens, UniProt O43613); assay: Orexin-receptor binding ability, [125I]-OX-A, CHO cell membranes expressing OX1; parameters: expressed in transfected cells; host or cells: CHO cells (membrane preparation)
T1 sequence (O43613 1-425): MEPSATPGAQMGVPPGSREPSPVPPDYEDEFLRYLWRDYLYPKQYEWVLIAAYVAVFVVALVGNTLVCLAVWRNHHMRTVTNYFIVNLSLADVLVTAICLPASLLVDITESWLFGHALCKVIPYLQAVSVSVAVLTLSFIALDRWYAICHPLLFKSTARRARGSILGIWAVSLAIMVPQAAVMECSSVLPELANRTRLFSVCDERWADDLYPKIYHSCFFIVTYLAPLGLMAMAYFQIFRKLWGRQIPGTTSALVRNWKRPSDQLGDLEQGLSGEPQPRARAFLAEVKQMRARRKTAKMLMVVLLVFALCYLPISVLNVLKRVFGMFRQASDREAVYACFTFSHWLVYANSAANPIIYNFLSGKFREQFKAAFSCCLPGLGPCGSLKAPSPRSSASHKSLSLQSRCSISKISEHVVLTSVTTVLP
Experimental: (§1) The assay was carried out using a 96-well Wheat Germ Agglutinin Flash Plate (PerkinElmer). The volume in a single assay well was 100 ul, and the composition of the reaction solution was as follows:
(§2) 25 mM HEPES (pH 7.5), 1 mM CaCl2, 4.5 mM MgCl2, 0.5% BSA (bovine serum albumin), 0.1% sodium azide, 0.05% Tween-20, and 0.2% DMSO.
Cell membranes were prepared from recombinant CHO cells that expressed OX2 or OX1. The cell membranes were used in an amount of 5 μg protein/assay. […] Finally, the radioactivity of each well was measured using a scintillation counter (TopCount, PerkinElmer). The obtained results are shown in terms of IC50 values (nM) in the following table.

OX2 [2] = molecular target: T2, OX2 (Homo sapiens, UniProt O43614); assay: Orexin-receptor binding ability, [125I]-OX-A, CHO cell membranes expressing OX2; parameters: expressed in transfected cells; host or cells: CHO cells (membrane preparation)
T2 sequence (O43614 1-444): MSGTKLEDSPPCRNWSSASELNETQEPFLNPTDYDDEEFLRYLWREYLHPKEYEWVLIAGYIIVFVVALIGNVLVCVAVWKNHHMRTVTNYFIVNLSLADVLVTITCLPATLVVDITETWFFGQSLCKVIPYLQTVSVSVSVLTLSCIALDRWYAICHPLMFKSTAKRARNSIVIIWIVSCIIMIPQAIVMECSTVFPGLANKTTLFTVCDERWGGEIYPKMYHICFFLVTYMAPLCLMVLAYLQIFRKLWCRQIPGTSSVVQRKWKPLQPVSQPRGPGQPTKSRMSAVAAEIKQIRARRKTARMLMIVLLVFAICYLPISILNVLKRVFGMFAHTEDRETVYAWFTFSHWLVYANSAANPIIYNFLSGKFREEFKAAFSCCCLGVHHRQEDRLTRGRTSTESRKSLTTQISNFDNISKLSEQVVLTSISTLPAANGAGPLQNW
Experimental: as §1, §2
Cell membranes were prepared from recombinant CHO cells that expressed OX2 or OX1. The cell membranes were used in an amount of 5 μg protein/assay. Test compound in various concentrations, and 0.2 nM [^125I]-OX-A as tracer were added to the cell membranes, and then allowed to react at room temperature for 30 minutes. After completion of the reaction, the reaction solution as a whole was discarded, and the wells were then washed once with 200 ul of wash buffer (25 mM HEPES (pH 7.5), 1 mM CaCl2, 5 mM MgCl2, 0.5% BSA, 0.1% sodium azide, 0.05% Tween-20, and 525 mM sodium chloride). Finally, the radioactivity of each well was measured using a scintillation counter (TopCount, PerkinElmer). The obtained results are shown in terms of IC50 values (nM) in the following table.

OX1 [3] = molecular target: T1, OX1; assay: Antagonism PLAP reporter assay, HEK-293 cells expressing human OX1; assay type: cell-based; parameters: expressed in transfected cells; host or cells: HEK-293 cell line, expression vector pBabeCLIH; details: HEK-293, 1 nM human OX-A; IC50 converted to Ki by Cheng-Prusoff equation
Experimental: (§3) The antagonistic function of the compound of the present invention to prevent the activation of OX2 and OX1 by orexin-A (OX-A), which is a natural peptide agonist, was measured using a cell-based reporter assay. A HEK-293 cell line expressing genetically recombinant human OX2 (accession No. NM_001526.3) or a HEK-293 cell line expressing genetically recombinant human OX1 (accession No. NM_001525.2), which had pBabeCLIH as expression vector, was used. The cells were plated at a density of 10,000 cells/well onto a non-coated 96-well plate in Dulbecco's modified Eagle medium (Sigma Cat No. D6046: 10% v/v heat-inactivated fetal bovine serum was contained). The cells were cultured at 37° C. overnight, so that they could adhere to the plate. On the following day, cells were incubated with a compound of the present invention dissolved in Dulbecco's modified Eagle medium (Sigma Cat No. A8806: 0.1% w/v bovine serum albumin was contained), and added to the cell plate to reach a final concentration of 0.1% dimethyl sulfoxide.
(§4) The thus obtained mixture was incubated at room temperature for 1 hour. Thereafter, human OX-A and forskolin were dissolved in the same medium as described above, which contained fetal bovine serum albumin, and the medium was then added to the cells, resulting in a final concentration of 300 nM forskolin. Subsequently, the cells were cultured at 37° C. for approximately 18 to 24 hours. During the culture, as a result of activation of the orexin receptor and subsequent dose-dependent increase in intracellular calcium concentration, a reporter enzyme, placental alkaline phosphatase (PLAP), was expressed under the control of a CRE x4+VIP promoter in a pBabeCLcre4vPdNN vector and secreted into the culture medium supernatant. On the following day, reporter enzyme activity was detected by mixing 5 ul of the culture medium supernatant with 20 ul of detection buffer (containing 1.34 g/L sodium bicarbonate, 1.27 g/L sodium carbonate and 0.2 g/L magnesium sulfate heptahydrate in water) and 25 ul of Lumi-Phos530 reagent (Wako Pure Chemical Industries Ltd.), followed by incubating the obtained mixture light-protected at room temperature for 2 hours, before performing luminescence measurement (ARVO Reader, PerkinElmer). The Kd value of human OX-A with respect to each receptor was measured by titration from 0 to 300 nM. Then, the IC50 value of the compound of the present invention with respect to the activity of 1 nM human OX-A was converted into a Ki value (nM) using the Cheng-Prusoff equation.

OX2 [4] = molecular target: T2, OX2; assay: Antagonism PLAP reporter assay, HEK-293 cells expressing human OX2; assay type: cell-based; parameters: expressed in transfected cells; host or cells: HEK-293 cell line, expression vector pBabeCLIH; details: HEK-293, 1 nM human OX-A; IC50 converted to Ki by Cheng-Prusoff equation
Experimental: as §3, §4

[5] = membranes of recombinant CHO cells, 0.2 nM [125I]-OX-A tracer, read-out: OX1 (IC50)
[6] = membranes of recombinant CHO cells, 0.2 nM [125I]-OX-A tracer, read-out: OX2 (IC50)

CCc1nc(Cl)cn1CCC1(c2ccccc2)CC1C(=O)Nc1ccc(C#N)cn1 (stereo not drawn) [Example 114]
IC50 (OX1 [1]; [5]): 868 nM | IC50 (OX2 [2]; [6]): 49 nM | Ki (OX1 [3]): > 467 nM | Ki (OX2 [4]): 210 nM

COc1ccc(OCC2(c3ccccc3)CC2C(=O)Nc2cc(C#N)ccn2)cc1OC (stereo not drawn) [Example 18, N-(4-cyanopyridin-2-yl)-2-[(3,4-dimethoxyphenyl)oxymethyl]-2-phenylcyclopropanecarboxamide]
IC50 (OX1 [1]; [5]): 105 nM | IC50 (OX2 [2]; [6]): 35 nM | Ki (OX1 [3]): 186 nM | Ki (OX2 [4]): 23.7 nM

CCn1cc(OC[C@@]2(c3ccccc3)C[C@H]2C(=O)Nc2ccc(F)cn2)ccc1=O (racemic) [Example 56]
IC50 (OX1 [1]; [5]): 160 nM | IC50 (OX2 [2]): 14 nM | Ki (OX1 [3]): 158 nM | Ki (OX2 [4]): 9.1 nM

COc1ccc(OCC2(c3ccccc3)CC2C(=O)Nc2cc(C)no2)cc1OC (stereo not drawn) [Example 8, N-(3-methylisoxazol-5-yl)-2-[(3,4-dimethoxyphenyl)oxymethyl]-2-phenylcyclopropanecarboxamide]
IC50 (OX1 [1]; [5]): 1260 nM | IC50 (OX2 [2]; [6]): 17 nM | Ki (OX1 [3]): > 816 nM | Ki (OX2 [4]): 92.1 nM

CCn1nc(C)cc1OCC1(c2ccccc2)CC1C(=O)Nc1ccc(Cl)cn1 (stereo not drawn) [Example 57]
IC50 (OX1 [1]; [5]): 483 nM | IC50 (OX2 [2]; [6]): 46 nM | Ki (OX1 [3]): > 467 nM | Ki (OX2 [4]): 31.7 nM

COc1cc(F)c(OCC2(c3ccccc3)CC2C(=O)Nc2ccccn2)cc1OC (stereo not drawn) [Example 78]
IC50 (OX1 [1]; [5]): 212 nM | IC50 (OX2 [2]): 20 nM | Ki (OX1 [3]): 342 nM | Ki (OX2 [4]): 19.2 nM

COc1ccc(OCC2(c3ccccc3)CC2C(=O)Nc2cncc(F)c2)cc1OC (stereo not drawn) [Example 24, N-(5-fluoropyridin-3-yl)-2-[(3,4-dimethoxyphenyl)oxymethyl]-2-phenylcyclopropanecarboxamide]
IC50 (OX1 [1]; [5]): 805 nM | IC50 (OX2 [2]; [6]): 48 nM | Ki (OX1 [3]): > 816 nM | Ki (OX2 [4]): 83.5 nM

CCc1nc(C)c(CC[C@@]2(c3ccccc3)C[C@H]2C(=O)Nc2ccc(C#N)cn2)s1 [Example 100, (1R,2R)—N-(5-cyanopyridin-2-yl)-2-[2-(2-ethyl-4-methyl-1,3-thiazol-5-yl)ethyl]-2-phenylcyclopropanecarboxamide]
IC50 (OX1 [1]; [5]): 58 nM | IC50 (OX2 [2]; [6]): 9 nM | Ki (OX1 [3]): 47.5 nM | Ki (OX2 [4]): 5.2 nM

COc1ccc(OCC2(c3ccccc3)CC2C(=O)Nc2cncc(Cl)c2)cc1OC (stereo not drawn) [Example 11, N-(5-chloropyridin-3-yl)-2-[(3,4-dimethoxyphenyl)oxymethyl]-2-phenylcyclopropanecarboxamide]
IC50 (OX1 [1]; [5]): 333 nM | IC50 (OX2 [2]; [6]): 29 nM | Ki (OX1 [3]): 572 nM | Ki (OX2 [4]): 48.2 nM

CCn1cc(OCC2(c3ccccc3)CC2C(=O)Nc2ccc(Cl)cn2)cn1 (stereo not drawn) [Example 81]
IC50 (OX1 [1]; [5]): 163 nM | IC50 (OX2 [2]; [6]): 33 nM | Ki (OX1 [3]): > 467 nM | Ki (OX2 [4]): 78 nM

COc1ccc(OCC2(c3ccccc3)CC2C(=O)Nc2ccncc2Cl)cc1OC (stereo not drawn) [Example 14, N-(3-chloropyridin-4-yl)-2-[(3,4-dimethoxyphenyl)oxymethyl]-2-phenylcyclopropanecarboxamide]
IC50 (OX1 [1]; [5]): 438 nM | IC50 (OX2 [2]; [6]): 46 nM | Ki (OX1 [3]): > 816 nM | Ki (OX2 [4]): 99 nM

COc1ccc(OCC2(c3ccccc3)CC2C(=O)Nc2cc(Cl)ccn2)cc1OC (stereo not drawn) [Example 28, N-(4-chloropyridin-2-yl)-2-[(3,4-dimethoxyphenyl)oxymethyl]-2-phenylcyclopropanecarboxamide]
IC50 (OX1 [1]; [5]): 38 nM | IC50 (OX2 [2]; [6]): 25 nM | Ki (OX1 [3]): 73.8 nM | Ki (OX2 [4]): 11 nM

COc1ccc(OCC2(c3ccccc3)CC2C(=O)Nc2cccc(F)n2)cc1OC (stereo not drawn) [Example 27, N-(6-fluoropyridin-2-yl)-2-[(3,4-dimethoxyphenyl)oxymethyl]-2-phenylcyclopropanecarboxamide]
IC50 (OX1 [1]): 37 nM | IC50 (OX2 [2]): 4 nM | Ki (OX1 [3]): 98 nM | Ki (OX2 [4]): 3.4 nM

COc1ccc(OCC2(c3ccccc3)CC2C(=O)Nc2cc(C)ns2)cc1OC (stereo not drawn) [Example 40, N-(3-methylisothiazol-5-yl)-2-[(3,4-dimethoxyphenyl)oxymethyl]-2-phenylcyclopropanecarboxamide]
IC50 (OX1 [1]; [5]): 1050 nM | IC50 (OX2 [2]; [6]): 36 nM | Ki (OX1 [3]): 752 nM | Ki (OX2 [4]): 51.5 nM

CCn1cc(OCC2(c3ccccc3)CC2C(=O)Nc2ccc(C#N)cn2)cn1 (stereo not drawn) [Example 80]
IC50 (OX1 [1]; [5]): 359 nM | IC50 (OX2 [2]; [6]): 54 nM | Ki (OX1 [3]): > 467 nM | Ki (OX2 [4]): 190 nM

CCn1cc(OCC2(c3ccccc3)CC2C(=O)Nc2ccc(F)cn2)c(C)n1 (stereo not drawn) [Example 79, N-(5-fluoropyridin-2-yl)-2-[(1-ethyl-3-methyl-1H-pyrazol-4-yl)oxymethyl]-2-phenylcyclopropanecarboxamide]
IC50 (OX1 [1]; [5]): 213 nM | IC50 (OX2 [2]; [6]): 54 nM | Ki (OX1 [3]): 275 nM | Ki (OX2 [4]): 10.5 nM

COc1ccc(OCC2(c3ccccc3)CC2C(=O)Nc2ccc(F)cn2)cc1OC (stereo not drawn) [Example 10, N-(5-fluoropyridin-2-yl)-2-[(3,4-dimethoxyphenyl)oxymethyl]-2-phenylcyclopropanecarboxamide]
IC50 (OX1 [1]; [5]): 56 nM | IC50 (OX2 [2]; [6]): 3 nM | Ki (OX1 [3]): 68.6 nM | Ki (OX2 [4]): 4.2 nM

COc1ccc(CCC2(c3ccccc3)CC2C(=O)Nc2ccccn2)cc1OC (stereo not drawn) [Example 99, N-(pyridin-2-yl)-2-[2-(3,4-dimethoxyphenyl)ethyl]-2-phenylcyclopropanecarboxamide]
IC50 (OX1 [1]; [5]): 632 nM | IC50 (OX2 [2]; [6]): 43 nM | Ki (OX1 [3]): > 816 nM | Ki (OX2 [4]): 154 nM
